# What was measured:
# [1] = test system: E. coli NCTC 13441 (UPEC); assay: MIC broth microdilution; assay type: cell-based, Escherichia coli; conditions: Escherichia coli, NCTC13441
# Description: (§1) Minimum Inhibitory Concentrations (MICs) versus planktonic bacteria are determined by the broth microdilution procedure according to the guidelines of the Clinical and Laboratory Standards Institute (Clinical and Laboratory Standards Institute. Methods for Dilution Antimicrobial Susceptibility Tests for Bacteria That Grow Aerobically; Approved Standard-tenth Edition. CLSI document M07-A10, 2015). The broth dilution method involves a two-fold serial dilution of compounds in 96-well microtitre plates, giving a final concentration range of 0.39-200 μM and a maximum final concentration of 2% DMSO. The bacterial strains tested include Escherichia coli K12 (EC), E. coli NCTC 13441 (UPEC), Staphylococcus aureus ATCC 35556 (SA), Acinetobacter baumannii ATCC 17978 (AB), Pseudomonas aeruginosa ATCC 33359 (PA), Enterobacter cloacae DSM 30054 (Ed), Serratia marcescens SL1344 (Sm), Salmonella typhimurium XNAA5 (St), Klebsiella pneumoniae ATCC 10031 (KP2), K. pneumoniae NCTC 13438 (KP1), K. pneumoniae ATCC 700603 (KP3), Klebsiella pneumoniae ATCC 51504 (KP4), K. pneumoniae H154680676 (KP5), K. pneumoniae H154020667 (KP6), K. pneumoniae H154640784 (KP7), K. pneumoniae H154600588 (KP8), K. pneumoniae H154300688 (KP9), K. pneumoniae H151440671 (KP10). Strains are grown in cation-adjusted Müller-Hinton broth or on Luria Bertoni agar at 37° C. in an ambient atmosphere. The MIC is determined as the lowest concentration of compound that inhibits growth following a 20-24 hour incubation period.
# [2] = test system: Pseudomonas aeruginosa ATCC 33359 (PA); assay: MIC broth microdilution; assay type: cell-based; conditions: ATCC33359
# Description: as §1
# [3] = test system: Staphylococcus aureus ATCC 35556 (SA); assay: MIC broth microdilution; assay type: cell-based; conditions: ATCC35556
# Description: as §1
# [4] = test system: Acinetobacter baumannii ATCC 17978 (AB); assay: MIC broth microdilution; assay type: cell-based; conditions: ATCC17978
# Description: as §1
# [5] = test system: Klebsiella pneumoniae ATCC 10031 (KP2); assay: MIC broth microdilution; assay type: cell-based; conditions: ATCC10031
# Description: as §1
# [6] = test system: Escherichia coli K12 (EC); assay: MIC broth microdilution; assay type: cell-based
# Description: as §1
# [7] = test system: K. pneumoniae NCTC 13438 (KP1); assay: MIC broth microdilution; assay type: cell-based, Klebsiella pneumoniae; conditions: Klebsiella pneumoniae, NCTC13438
# Description: as §1
# [8] = test system: human hepatocarcinoma cell line ATCC HB-8065 (HepG2); assay: Human cell viability (CellTiter-Glo); assay type: cell-based; conditions: Homo sapiens; HepG2 cells, 24 h incubation, CellTiter-Glo luminescence, 0.2-100 μM; read-out: IC50 values against the HepG2 cell line
# Description: Compounds are assessed for potential non-specific cytotoxic effects against the human hepatocarcinoma cell line ATCC HB-8065 (HepG2). HepG2 cells are seeded at 20,000 cells/well in 96-well microtitre plates in minimal essential medium (MEM) supplemented with a final concentration of 10% FBS. After 24 h, compound dilutions are prepared in MEM supplemented with a final concentration of 1% FBS, and added to the cells. Compounds are tested in two-fold serial dilutions over a final concentration range of 0.2-100 μM in a final DMSO concentration of 1% vol/vol. Thioridazine is used as a positive control. Cells are incubated with compound at 37° C. and 5% CO2 for a further 24 h, after which time the CellTiter-Glo reagent (Promega) is added. Luminescence is measured on a Perkin Elmer Envision plate reader. Data are analysed using a 4 parameter logistic regression to determine the concentration of compound that inhibits cell viability by fifty percent (IC50).
Compound,MIC [1] [µM],MIC [2] [µM],MIC [3] [µM],MIC [4] [µM],MIC [5] [µM],MIC [6] [µM],MIC [7] [µM],IC50 [8] [µM]
"CC(=O)N1CCOc2ccc(-c3nc(N)[nH]c3-c3ccnc(C)c3)cc21 [Example 63, 1-(6-(2-Amino-5-(2-methylpyridin-4-yl)-1H-imidazol-4-yl)-2,3-dihydro-4H-benzo[b][1,4]oxazin-4-yl)ethan-1-one]",10 to 100,> 100,> 100,> 100,1 to 10,10 to 100,> 100,> 100
"CNc1nc(-c2ccc3c(c2)NCCO3)c(-c2ccnc(C)c2)[nH]1 [Example 78, 4-(3,4-Dihydro-2H-benzo[b][1,4]oxazin-6-yl)-N-methyl-5-(2-methylpyridin-4-yl)-1H-imidazol-2-amine]",1 to 10,> 100,> 100,> 100,≤ 1,1 to 10,10 to 100,–
"Cc1cc(-c2nc(N)[nH]c2-c2ccc3c(c2)N(CCN)C(=O)CO3)ccn1 [Example 89, 6-(2-Amino-4-(2-methylpyridin-4-yl)-1H-imidazol-5-yl)-4-(2-aminoethyl)-2H-benzo[b][1,4]oxazin-3(4H)-one]",1 to 10,> 100,> 100,> 100,≤ 1,1 to 10,10 to 100,> 100
"Cc1cc(-c2[nH]c(N)nc2-c2ccc3c(c2)N(CCN)CCO3)ccn1 [Example 91, 4-(4-(2-Aminoethyl)-3,4-dihydro-2H-benzo[b][1,4]oxazin-6-yl)-5-(2-methylpyridin-4-yl)-1H-imidazol-2-amine]",≤ 1,> 100,> 100,> 100,≤ 1,≤ 1,≤ 1,> 100
"Cc1cc(-c2[nH]c(N)nc2-c2ccc3c(c2)NCC(C)O3)ccn1 (stereo not drawn) [Example 34, 4-(2-Methyl-3,4-dihydro-2H-benzo[b][1,4]oxazin-6-yl)-5-(2-methylpyridin-4-yl)-1H-imidazol-2-amine]",1 to 10,> 100,> 100,> 100,≤ 1,1 to 10,1 to 10,> 100
"Cc1cc(-c2[nH]c(N)nc2-c2ccc3c(c2)CC(C)O3)ccn1 (racemic) [Example 41, 4-(2-Methyl-2,3-dihydrobenzofuran-5-yl)-5-(2-methylpyridin-4-yl)-1H-imidazol-2-amine]",≤ 1,> 100,> 100,> 100,≤ 1,≤ 1,1 to 10,> 100
"CNc1nc(-c2ccc3c(c2)OCCO3)c(-c2ccnc(C)c2)[nH]1 [Example 74, 4-(2,3-dihydrobenzo[b][1,4]dioxin-6-yl)-N-methyl-5-(2-methylpyridin-4-yl)-1H-imidazol-2-amine]",1 to 10,> 100,> 100,> 100,≤ 1,1 to 10,10 to 100,> 100
"CC(=O)Nc1nc(-c2ccc3c(c2)OCCO3)c(-c2ccnc(C)c2)[nH]1 [Example 72, N-(4-(2,3-Dihydrobenzo[b][1,4]dioxin-6-yl)-5-(2-methylpyridin-4-yl)-1H-imidazol-2-yl)acetamide]",> 100,> 100,> 100,> 100,1 to 10,> 100,> 100,–
"Cc1cc(-c2[nH]c(=O)[nH]c2-c2ccc3c(c2)OCCO3)ccn1 [Example 82, 4-(2,3-Dihydrobenzo[b][1,4]dioxin-6-yl)-5-(2-methylpyridin-4-yl)-1,3-dihydro-2H-imidazol-2-one]",10 to 100,> 100,> 100,> 100,≤ 1,10 to 100,> 100,–
"Cc1cc(-c2[nH]c(N)nc2-c2ccc3c(c2)N(C2CCCC2)C(=O)CO3)ccn1 [Example 69, 6-(2-Amino-4-(2-methylpyridin-4-yl)-1H-imidazol-5-yl)-4-cyclopentyl-2H-benzo[b][1,4]oxazin-3(4H)-one]",1 to 10,> 100,> 100,> 100,≤ 1,1 to 10,10 to 100,–
"Cc1cc(-c2[nH]c(N)nc2-c2ccc3c(c2)N(CCOCCO)CCO3)ccn1 [Example 95, 2-(2-(6-(2-Amino-5-(2-methylpyridin-4-yl)-1H-imidazol-4-y1)-2,3-dihydro-4H-benzo[b][1,4]oxazin-4-yl)ethoxy)ethan-1-ol]",1 to 10,> 100,> 100,> 100,≤ 1,1 to 10,10 to 100,–
Nc1nc(-c2ccncn2)c(-c2ccc3c(c2)OCCO3)[nH]1 [Example 30],10 to 100,> 100,> 100,> 100,1 to 10,10 to 100,> 100,–
"Nc1nc(-c2ccc3c(c2)OCCO3)c(-c2cccnc2)[nH]1 [Example 22, 4-(2,3-Dihydrobenzo[b][1,4]dioxin-6-yl)-5-(pyridin-3-yl)-1H-imidazol-2-amine]",> 100,> 100,> 100,> 100,1 to 10,> 100,> 100,–
"Cc1cc(-c2[nH]c(N(C)C)nc2-c2ccc3c(c2)NCCO3)ccn1 [Example 79, 4-(3,4-Dihydro-2H-benzo[b][1,4]oxazin-6-yl)-N,N-dimethyl-5-(2-methylpyridin-4-yl)-1H-imidazol-2-amine]",1 to 10,> 100,> 100,> 100,1 to 10,10 to 100,> 100,–
"Cc1cc(-c2[nH]c(N)nc2-c2ccc3c(c2)N(C(C)C)C(=O)CO3)ccn1 [Example 68, 6-(2-Amino-4-(2-methylpyridin-4-yl)-1H-imidazol-5-yl)-4-isopropyl-2H-benzo[b][1,4]oxazin-3(4H)-one]",1 to 10,> 100,> 100,> 100,≤ 1,1 to 10,10 to 100,–
"Cc1cc(-c2[nH]c(N)nc2-c2ccc3c(c2)N(CC2CC2)C(=O)CO3)ccn1 [Example 67, 6-(2-Amino-4-(2-methylpyridin-4-yl)-1H-imidazol-5-yl)-4-(cyclopropylmethyl)-2H-benzo[b][1,4]oxazin-3(4H)-one]",1 to 10,> 100,> 100,> 100,≤ 1,1 to 10,10 to 100,–
"Cc1cc(-c2c(-c3ccc4c(c3)OCCO4)nc(N)n2C)ccn1 [Example 73, 4-(2,3-dihydrobenzo[b][1,4]dioxin-6-yl)-1-methyl-5-(2-methylpyridin-4-yl)-1H-imidazol-2-amine]",> 100,> 100,> 100,> 100,> 100,> 100,> 100,–
"Cc1cc(-c2nc(N)[nH]c2-c2ccc3c(c2)N(CCOCCO)C(=O)CO3)ccn1 [Example 70, 6-(2-Amino-4-(2-methylpyridin-4-yl)-1H-imidazol-5-yl)-4-(2-(2-hydroxyethoxy)ethyl)-2H-benzo[b][1,4]oxazin-3(4H)-one]",1 to 10,> 100,> 100,> 100,≤ 1,1 to 10,10 to 100,–
